Columns and labels:
Test in all cases: relative viability (nuclei count vs DMSO), 5 days (fraction); higher = more cells survive
[1] = system: COR-L23
Method in brief: (§1)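 Lung cancer cell lines in 1536-well plates were dosed by pin tool the day after seeding, either with one drug alone or with a fixed anchor-drug dose plus five library-drug doses (not always all listed) in √10 steps. After 5 days, cells were fixed and their nuclei stained in one step (final 0.05% Triton X-100, 1% formaldehyde, 1 ug/ml Hoechst), then counted on 4× images. Relative viability is the nuclei count in treated wells divided by that in vehicle wells. Values are medians of duplicate plates.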

[2] = system: NCI-H1651
Method in brief: as §1

[3] = system: ChaGo-K-1
Method in brief: as §1

[4] = system: IA-LM
Method in brief: as §1

[5] = system: NCI-H1437
Method in brief: as §1

[6] = system: EBC-1
Method in brief: as §1

[7] = system: NCI-H1703
Method in brief: as §1

[8] = system: SW 1573
Method in brief: as §1

[9] = system: SK-MES-1
Method in brief: as §1

[10] = system: A549
Method in brief: as §1

[11] = system: Calu-6
Method in brief: as §1

[12] = system: NCI-H1299
Method in brief: as §1

## COc1nc(C)cnc1NS(=O)(=O)c1cccnc1-c1ccc(-c2nnco2)cc1 [Zibotentan] + CC1(C)CCC(c2ccc(Cl)cc2)=C(CN2CCN(c3ccc(C(=O)NS(=O)(=O)c4ccc(N[C@H](CCN5CCOCC5)CSc5ccccc5)c(S(=O)(=O)C(F)(F)F)c4)cc3)CC2)C1 [Navitoclax] (partner 0.5 µM)
[1]; first compound 0.08 µM
  relative viability: 1.03
[1]; first compound 0.253 µM
  relative viability: 1.08
[1]; first compound 0.8 µM
  relative viability: 1.07
[1]; first compound 2.53 µM
  relative viability: 1.01
[2]; first compound 0.08 µM
  relative viability: 1.08
[2]; first compound 0.253 µM
  relative viability: 0.875
[2]; first compound 0.8 µM
  relative viability: 1
[2]; first compound 2.53 µM
  relative viability: 1.11
[3]; first compound 0.08 µM
  relative viability: 0.95
[3]; first compound 0.8 µM
  relative viability: 0.695
[3]; first compound 2.53 µM
  relative viability: 0.888
[4]; first compound 0.08 µM
  relative viability: 0.764
[4]; first compound 0.253 µM
  relative viability: 0.688
[4]; first compound 0.8 µM
  relative viability: 0.682
[4]; first compound 2.53 µM
  relative viability: 0.699
[5]; first compound 0.08 µM
  relative viability: 1.12
[5]; first compound 0.253 µM
  relative viability: 1.04
[5]; first compound 0.8 µM
  relative viability: 1.07
[5]; first compound 2.53 µM
  relative viability: 1.17
[6]; first compound 0.08 µM
  relative viability: 0.487
[6]; first compound 0.253 µM
  relative viability: 0.499
[6]; first compound 0.8 µM
  relative viability: 0.477
[6]; first compound 2.53 µM
  relative viability: 0.38
[7]; first compound 0.08 µM
  relative viability: 1.15
[7]; first compound 0.253 µM
  relative viability: 1.08
[7]; first compound 0.8 µM
  relative viability: 1.25
[7]; first compound 2.53 µM
  relative viability: 1.03
[8]; first compound 0.08 µM
  relative viability: 0.993
[8]; first compound 0.253 µM
  relative viability: 0.914
[8]; first compound 0.8 µM
  relative viability: 1.01
[8]; first compound 2.53 µM
  relative viability: 1.04
[9]; first compound 0.08 µM
  relative viability: 1.32
[9]; first compound 0.253 µM
  relative viability: 1.14
[9]; first compound 0.8 µM
  relative viability: 1.21
[9]; first compound 2.53 µM
  relative viability: 1.29
[10]; first compound 0.08 µM
  relative viability: 1.45
[10]; first compound 0.253 µM
  relative viability: 1.18
[10]; first compound 0.8 µM
  relative viability: 1.26
[10]; first compound 2.53 µM
  relative viability: 1.2
[11]; first compound 0.08 µM
  relative viability: 0.832
[11]; first compound 0.253 µM
  relative viability: 0.79
[11]; first compound 0.8 µM
  relative viability: 0.888
[11]; first compound 2.53 µM
  relative viability: 0.894
[12]; first compound 0.08 µM
  relative viability: 1.05
[12]; first compound 0.253 µM
  relative viability: 0.998
[12]; first compound 0.8 µM
  relative viability: 1.05
[12]; first compound 2.53 µM
  relative viability: 1.05

## O=c1cc(N2CCOCC2)oc2c(-c3cccc4c3sc3ccccc34)cccc12 + CC1(C)CCC(c2ccc(Cl)cc2)=C(CN2CCN(c3ccc(C(=O)NS(=O)(=O)c4ccc(N[C@H](CCN5CCOCC5)CSc5ccccc5)c(S(=O)(=O)C(F)(F)F)c4)cc3)CC2)C1 [Navitoclax] (partner 0.5 µM)
[1]; first compound 0.01 µM
  relative viability: 1
[1]; first compound 0.03162 µM
  relative viability: 1.02
[1]; first compound 0.1 µM
  relative viability: 0.976
[1]; first compound 0.3162 µM
  relative viability: 1.05
[1]; first compound 1 µM
  relative viability: 0.98
[2]; first compound 0.01 µM
  relative viability: 1.07
[2]; first compound 0.03162 µM
  relative viability: 0.997
[2]; first compound 0.1 µM
  relative viability: 1.01
[2]; first compound 0.3162 µM
  relative viability: 0.991
[2]; first compound 1 µM
  relative viability: 0.927
[3]; first compound 0.01 µM
  relative viability: 1.04
[3]; first compound 0.03162 µM
  relative viability: 0.927
[3]; first compound 0.1 µM
  relative viability: 0.729
[3]; first compound 0.3162 µM
  relative viability: 1.06
[3]; first compound 1 µM
  relative viability: 0.971
[4]; first compound 0.01 µM
  relative viability: 0.909
[4]; first compound 0.03162 µM
  relative viability: 0.667
[4]; first compound 0.1 µM
  relative viability: 0.902
[4]; first compound 0.3162 µM
  relative viability: 0.561
[4]; first compound 1 µM
  relative viability: 0.876
[5]; first compound 0.01 µM
  relative viability: 1.05
[5]; first compound 0.03162 µM
  relative viability: 1.13
[5]; first compound 0.1 µM
  relative viability: 1.16
[5]; first compound 0.3162 µM
  relative viability: 1.05
[5]; first compound 1 µM
  relative viability: 1.05
[6]; first compound 0.01 µM
  relative viability: 0.469
[6]; first compound 0.03162 µM
  relative viability: 0.377
[6]; first compound 0.1 µM
  relative viability: 0.353
[6]; first compound 0.3162 µM
  relative viability: 0.408
[6]; first compound 1 µM
  relative viability: 0.406
[7]; first compound 0.01 µM
  relative viability: 1.34
[7]; first compound 0.03162 µM
  relative viability: 1.28
[7]; first compound 0.1 µM
  relative viability: 1.24
[7]; first compound 0.3162 µM
  relative viability: 1.07
[7]; first compound 1 µM
  relative viability: 1.01
[8]; first compound 0.01 µM
  relative viability: 1.04
[8]; first compound 0.03162 µM
  relative viability: 1
[8]; first compound 0.1 µM
  relative viability: 1.15
[8]; first compound 0.3162 µM
  relative viability: 1.06
[8]; first compound 1 µM
  relative viability: 0.832
[9]; first compound 0.01 µM
  relative viability: 1.28
[9]; first compound 0.03162 µM
  relative viability: 1.26
[9]; first compound 0.1 µM
  relative viability: 1.43
[9]; first compound 0.3162 µM
  relative viability: 1.26
[9]; first compound 1 µM
  relative viability: 1.13
[10]; first compound 0.01 µM
  relative viability: 1.22
[10]; first compound 0.03162 µM
  relative viability: 1.17
[10]; first compound 0.1 µM
  relative viability: 1.28
[10]; first compound 0.3162 µM
  relative viability: 1.23
[10]; first compound 1 µM
  relative viability: 1.2
[11]; first compound 0.01 µM
  relative viability: 0.795
[11]; first compound 0.03162 µM
  relative viability: 0.786
[11]; first compound 0.1 µM
  relative viability: 0.967
[11]; first compound 0.3162 µM
  relative viability: 0.86
[11]; first compound 1 µM
  relative viability: 0.933
[12]; first compound 0.01 µM
  relative viability: 1.02
[12]; first compound 0.03162 µM
  relative viability: 1.06
[12]; first compound 0.1 µM
  relative viability: 1.08
[12]; first compound 0.3162 µM
  relative viability: 1
[12]; first compound 1 µM
  relative viability: 1.04

Source: the supplement of paper PMC10307832
